In general, EC50 refers to the concentration that produces a half-maximal response. A high value points to lower potency in that assay. Usually Kd stands for the constant that tells how readily two partners part at equilibrium. A higher Kd goes with lower affinity.

Our source for the EC50, Kd and specific activity values is PMC7090077, “Developing a highly efficient hydroxytyrosol whole-cell catalyst by de-bottlenecking rate-limiting steps” (Nature Communications, 2020).

In assay [1] the target is T1, VanR (Corynebacterium glutamicum, UniProt Q8NN31, R148L/Y103L/Y168M).
T1 construct: gene Cgl2382; full length; GST fusion from pGEX-6p-1 in E. coli BL21(DE3), GST tag cleaved with PreScission protease; homodimer, ligand pocket at subunit interface
T1 sequence (Q8NN31 entry or part of it Y103L/R148L/Y168M): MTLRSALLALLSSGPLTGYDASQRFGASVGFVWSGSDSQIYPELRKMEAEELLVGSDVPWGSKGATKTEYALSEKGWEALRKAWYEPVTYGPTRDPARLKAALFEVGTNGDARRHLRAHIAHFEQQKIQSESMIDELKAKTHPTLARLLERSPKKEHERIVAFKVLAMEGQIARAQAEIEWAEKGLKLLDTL
As to the kind of experiment: RFP reporter induction in E. coli BW25113 with plasmid pVanR. Format: cell-based.

Assay [2] addresses T2, VanR (Corynebacterium glutamicum, UniProt Q8NN31).
T2 construct: gene Cgl2382; full length; GST fusion from pGEX-6p-1 in E. coli BL21(DE3), GST tag cleaved with PreScission protease; homodimer, ligand pocket at subunit interface
As to the kind of experiment: isothermal titration calorimetry. It is filed as binding. On the technique in general: Isothermal titration calorimetry measures the heat released or taken up as one component is titrated into another.

The next assay concerns the target T3, HpaBC (Escherichia coli, UniProt Q57160).
T3 construct: gene hpaB; HpaB and HpaC purified on Ni-NTA; two-component flavin-dependent monooxygenase; with 4-hydroxyphenylacetate 3-monooxygenase reductase component
T3 sequence (Q57160 1-520): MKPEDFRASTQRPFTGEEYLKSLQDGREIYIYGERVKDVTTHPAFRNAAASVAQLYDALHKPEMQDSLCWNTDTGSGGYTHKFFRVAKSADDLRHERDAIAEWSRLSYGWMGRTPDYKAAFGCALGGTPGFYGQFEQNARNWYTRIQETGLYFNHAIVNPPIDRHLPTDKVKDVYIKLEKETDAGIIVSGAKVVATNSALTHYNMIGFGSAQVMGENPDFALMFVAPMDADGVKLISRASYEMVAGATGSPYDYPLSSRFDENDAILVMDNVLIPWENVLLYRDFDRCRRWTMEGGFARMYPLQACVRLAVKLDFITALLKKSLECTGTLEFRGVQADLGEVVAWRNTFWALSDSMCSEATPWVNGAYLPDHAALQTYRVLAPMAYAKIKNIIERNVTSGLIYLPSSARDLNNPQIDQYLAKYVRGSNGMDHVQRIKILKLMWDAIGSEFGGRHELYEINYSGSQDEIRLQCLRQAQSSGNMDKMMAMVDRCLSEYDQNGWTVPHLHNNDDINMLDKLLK
Put plainly: specific activity, product formation by HPLC. Conditions: wild-type. It is filed as biochemical.

T2 sequence (Q8NN31 entry or part of it): as the sequence (Q8NN31 entry or part of it Y103L/R148L/Y168M) above, with L103Y, L148R, M168Y counted along it

In turn, `OCCc1ccc(O)c(O)c1` [hydroxytyrosol] returned an EC50 at VanR [1] of about 500 µM.
In turn, `COc1cc(C(=O)O)ccc1O` [vanillic acid] gave a Kd at VanR [2] of 6.99 µM.
Consider `O=C(O)Cc1ccc(O)cc1` [4-hydroxyphenylacetate], for which the specific activity entry on HpaBC was “the hydroxylation activity of these HpaBC mutants on the original substrate 4-HPA reduced considerably”.
